In ChEMBL document CHEMBL4715696, “In vitro synergistic anticancer activity of the combination of T-type calcium channel blocker and chemotherapeutic agent in A549 cells” (Bioorg Med Chem Lett, 2016):

Columns and labels:
[1] = tested on: A549; assay: Induction of cell cycle arrest in human A549 cells assessed as increase in cell accumulation at G1 phase after 48 hrs by flow cytometric analysis; format: functional, cell-based; details: dose 2.5-10 µM
[2] = tested on: A549; assay: Induction of cell cycle arrest in human A549 cells assessed as accumulation at S phase at 5 uM after 24 hrs by flow cytometric analysis (reference value: 17.6%); format: functional
[3] = tested on: A549; assay: Decrease in cell cycle associated protein expression in human A549 cells assessed as fold change in cyclin D2 expression at 10 uM after 36 hrs by Western blot analysis (reference value: 0.77); format: functional
[4] = tested on: A549; assay: Decrease in cell cycle associated protein expression in human A549 cells assessed as fold change in cyclin E expression at 10 uM after 12 hrs by Western blot analysis (reference value: 0.55); format: functional
[5] = tested on: A549; assay: Decrease in cell cycle associated protein expression in human A549 cells assessed as fold change in cyclin E expression at 10 uM after 6 hrs by Western blot analysis (reference value: 0.55); format: functional
[6] = tested on: A549; assay: Induction of cell cycle arrest in human A549 cells assessed as accumulation at G1 phase at 5 uM after 24 hrs by flow cytometric analysis (reference value: 53.1%); format: functional
[7] = Upregulation of p27KIP1 protein expression in human A549 cells assessed as fold change in expression at 2.5 uM after 48 hrs by Western blot analysis (reference value: 0.48); format: functional
[8] = tested on: A549; assay: Upregulation of p27KIP1 protein expression in human A549 cells after 48 hrs by Western blot analysis; format: functional, cell-based; details: dose 2.5-10 µM
[9] = tested on: A549; assay: Induction of cell cycle arrest in human A549 cells assessed as accumulation at sub G1 phase at 2.5 uM after 48 hrs by flow cytometric analysis (Rvb =1.9 %); format: functional
[10] = target: T1, CYP1A2 (Homo sapiens, UniProt P05177); assay: Inhibition of human CYP1A2 assessed as residual activity at 10 uM measured after 15 mins relative to control; format: ADME; details: read-out: Activity
T1 sequence (P05177 whole entry): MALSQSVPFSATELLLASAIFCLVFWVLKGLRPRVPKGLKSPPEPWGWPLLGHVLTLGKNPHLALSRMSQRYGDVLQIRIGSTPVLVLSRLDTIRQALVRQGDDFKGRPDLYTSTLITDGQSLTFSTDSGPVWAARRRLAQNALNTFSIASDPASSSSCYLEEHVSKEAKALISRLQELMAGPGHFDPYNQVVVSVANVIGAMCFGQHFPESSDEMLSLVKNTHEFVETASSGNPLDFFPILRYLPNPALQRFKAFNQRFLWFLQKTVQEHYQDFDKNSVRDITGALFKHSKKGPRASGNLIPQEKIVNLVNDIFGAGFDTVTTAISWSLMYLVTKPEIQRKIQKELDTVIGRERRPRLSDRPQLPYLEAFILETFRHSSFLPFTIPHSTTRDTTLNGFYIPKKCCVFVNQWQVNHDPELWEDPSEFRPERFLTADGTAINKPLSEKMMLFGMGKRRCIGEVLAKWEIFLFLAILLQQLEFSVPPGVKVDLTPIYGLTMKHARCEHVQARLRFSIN

[11] = tested on: A549; assay: Decrease in cell cycle associated protein expression in human A549 cells assessed as fold change in CDK2 expression at 10 uM after 24 hrs by Western blot analysis (reference value: 0.79); format: functional
[12] = tested on: A549; assay: Decrease in cell cycle associated protein expression in human A549 cells assessed as fold change in cyclin D2 expression at 5 uM after 48 hrs by Western blot analysis (reference value: 0.46); format: functional
[13] = tested on: A549; assay: Potentiation of etoposide-induced cell cycle arrest in human A549 cells assessed as accumulation at S phase at 5 uM in presence of etoposide after 48 hrs by flow cytometric analysis (Rvb =12.3%); format: functional
[14] = tested on: A549; assay: Decrease in cell cycle associated protein expression in human A549 cells assessed as reduction in CDK4 expression at 10 uM by Western blot analysis; format: functional, cell-based; details: time 6-48 hrs, TDE = time-dependent effect
[15] = tested on: A549; assay: Potentiation of etoposide-induced cell cycle arrest in human A549 cells assessed as accumulation at G2/M phase at 2.5 uM in presence of etoposide after 48 hrs by flow cytometric analysis (Rvb =18.9%); format: functional
[16] = tested on: A549; assay: Potentiation of etoposide-induced cell cycle arrest in human A549 cells assessed as accumulation at G1 phase at 5 uM in presence of etoposide after 48 hrs by flow cytometric analysis (reference value: 36%); format: functional
[17] = tested on: A549; assay: Decrease in cell cycle associated protein expression in human A549 cells assessed as fold change in CDK4 expression at 10 uM after 24 hrs by Western blot analysis (reference value: 0.87); format: functional
[18] = tested on: A549; assay: Decrease in cell cycle associated protein expression in human A549 cells assessed as reduction in cyclin D2 expression after 48 hrs by Western blot analysis; format: functional, cell-based; details: dose 2.5-10 µM
[19] = tested on: A549; assay: Decrease in cell cycle associated protein expression in human A549 cells assessed as fold change in cyclin E expression at 10 uM after 24 hrs by Western blot analysis (reference value: 0.55); format: functional
[20] = tested on: A549; assay: Potentiation of etoposide-induced apoptosis in human A549 cells assessed as early apoptotic cells at 10 uM incubated for 48 hrs by AnnexinV-FITC/propidium iodide staining based flow cytometry (reference value: 19.1%); format: functional
[21] = tested on: A549; assay: Decrease in cell cycle associated protein expression in human A549 cells assessed as fold change in cyclin D3 expression at 10 uM after 24 hrs by Western blot analysis (reference value: 1.09); format: functional
[22] = tested on: A549; assay: Decrease in cell cycle associated protein expression in human A549 cells assessed as fold change in cyclin D2 expression at 2.5 uM after 48 hrs by Western blot analysis (reference value: 0.46); format: functional
[23] = Metabolic stability in human plasma assessed as parent compound remaining at 10 uM measured after 2 hrs; format: ADME, cell-free; details: read-out: Stabilty
[24] = tested on: A549; assay: Induction of cell cycle arrest in human A549 cells assessed as accumulation at S phase at 10 uM after 48 hrs by flow cytometric analysis (reference value: 10.4%); format: functional
[25] = tested on: A549; assay: Decrease in cell cycle associated protein expression in human A549 cells assessed as fold change in CDK6 expression at 10 uM after 12 hrs by Western blot analysis (reference value: 0.7); format: functional
[26] = Metabolic stability in dog liver microsomes assessed as parent compound remaining at 1 uM measured for 30 mins; format: ADME, Canis lupus familiaris, Microsome; details: read-out: Stabilty
[27] = tested on: A549; assay: Induction of cell cycle arrest in human A549 cells assessed as accumulation at G1 phase at 5 uM after 48 hrs by flow cytometric analysis (reference value: 57.8 to 65.5%); format: functional
[28] = tested on: A549; assay: Potentiation of etoposide-induced cell cycle arrest in human A549 cells assessed as accumulation at G1 phase at 10 uM in presence of etoposide after 48 hrs by flow cytometric analysis (reference value: 36%); format: functional
[29] = tested on: A549; assay: Potentiation of etoposide-induced cell cycle arrest in human A549 cells assessed as accumulation at sub G1 phase at 2.5 uM in presence of etoposide after 48 hrs by flow cytometric analysis (Rvb =33 %); format: functional
[30] = tested on: A549; assay: Potentiation of cisplatin-induced cell cycle arrest in human A549 cells assessed as accumulation at S phase at 2.5 uM in presence of cisplatin after 48 hrs by flow cytometric analysis (Rvb =15.8%); format: functional

SMILES: CN(C)C(=O)NCCCN(C)C1=Nc2ccccc2C(CC(=O)NCc2ccc(F)cc2)N1c1ccc(C2CCCCC2)cc1 (stereo not given)
- Activity [1]: Dose-dependent effect
- Activity [2]: 12.4%
- fold change (FC) [3]: 0.61
- fold change (FC) [4]: 0.13
- fold change (FC) [5]: 0.53
- Activity [6]: 63.6%
- fold change (FC) [7]: 0.62
- Activity [8]: Dose-dependent effect
- Activity [9]: 1.3%
- activity at 0.25 h, 10 µM [10]: 59.2%
- fold change (FC) [11]: 0.61
- fold change (FC) [12]: 0.52
- Activity [13]: 7.9%
- Activity [14]: Tde
- Activity [15]: 18.5%
- Activity [16]: 35.6%
- fold change (FC) [17]: 0.59
- Activity [18]: Dose-dependent effect
- fold change (FC) [19]: 0.08
- Activity [20]: 49.1%
- fold change (FC) [21]: 0.51
- fold change (FC) [22]: 0.61
- remaining at 2 h, 10 µM [23]: 57.6%
- Activity [24]: 2.4%
- fold change (FC) [25]: 0.64
- remaining at 0.5 h, 1 µM [26]: 92.6%
- Activity [27]: 67.7%
- Activity [28]: 7.9%
- Activity [29]: 36.9%
- Activity [30]: 19.2%
